Entries after “also recorded” stand apart in the source; their conditions may differ. One block for each compound: values may come before it.
Key:
[1] = Glucose affinity by 13C NMR assay; settings: 1 mM glucose and 1 mM boronate, pH 7.4, 10 mM phosphate buffer, read-out: Binding Affinity [Kd Glucose (mM)] measured by 13C-NMR
From the text: The ^13C Glucose assay is an NMR based assay that takes advantage of the slow chemical shift exchange between the unbound glucose (A state) and the glucose bound to diboronates (B state). If
In a slow exchange regime NMR signals from both states (A and B) are observed and reflect the distinct chemical shifts of the two states as there is not significant interconversion in the timescale of the NMR experiments. Therefore the intensity of each peak directly reports on the population of that state.
The dissociation constant (Kd) could be defined as Kd=([A][B])/[AB], given At as the total concentration of specie A and Bt as total concentration of specie B, in the case in which At−Bt, the product at the equilibrium AB is given by the following equation:
[formula] so that knowing At, Bt and AB at the equilibrium is possible to determine Kd. […]
The samples are then investigated with a standard Carbon HSQC in a Bruker NMR instrument (RT, 32 scans). The intensities of the peaks of free glucose and glucose bound to boronates are determined by the use of TOPSPIN program (Bruker). Difference between intensity of free glucose and glucose bound peaks gives the concentration of product AB at the equilibrium so that Kd can be calculated using equation 1.

[2] = biological target: human serum albumin (HSA) (Homo sapiens (Human), UniProt P02768); experiment: Fluorine (19F) NMR assay, glucose-sensitive albumin binding; settings: 0.1 mM compound, 1 mM HSA, 50 mM glucose, pH 7.4
Protocol: Diboron compound is dissolved at a 0.1 mM concentration in a 50 mM phosphate buffer pH 7.4, 10% deuterated water (D2O), and mixed with 0, 0.1, 0.2, 0.5, 1 and 2 mM human serum albumin (HSA). An additional sample with diboron compound in the presence of 1 mM HSA and 50 mM glucose is prepared.
The samples are then placed into 3 mm standard NMR tube (Bruker) and transferred for analysis to a 400 Mhz Bruker spectrometer equipped with a cryoprobe suitable for fluorine detection. The experiment is carried out with standard Bruker zgflqn pulse sequence at room temperature with enough scans to have a S/N ratio over 50 for the 0 mM HSA sample. The spectra are processed, visualized and compared by TopSpin program (Bruker).
The binding of diboron compound to HSA is qualitatively assessed by decrease of the fluorine signal of the diboron compound upon binding to HSA. Release of the diboron compound from HSA upon addition of glucose is assessed by reappearance/increase of fluorine signal in the spectra.

[3] = Alizarin red (ARS) assay, glucose binding affinity; settings: 20 mM phosphate buffer pH 7.4, room temperature
Protocol: (§1) The alizarin-red binding assay is a colorimetric assay used to determine the inhibition affinity of boronate compounds to glucose. The assay is based on a colour shift of alizarin-red upon binding to boronate, which shift can be followed by change in absorbance in the 330-340 nm region.
(§2) After 5 minutes of centrifugation at 4000 rpm, the plate is placed in a multi-well spectrometer (SpectraMax, Molecular Devices) for absorption detection.
(§3) The analysis is carried out at room temperature with absorption readings at 330, 340 and 520 nm, respectively. Data obtained for absorption versus concentration of boronate is then fitted (Prism 7, GraphPad) with a sigmoidal function to obtain the Kd value of boronate and ARS.
(§4) Upon complete dissolution of the compound, 200 μM of Alizarin red (ARS) is added to the solution. The ARS-boronate solution is then aliquoted into a 96 multiwell plate (black, flat and clear bottom) 1:1 with appropriate carbohydrate. In particular, D-glucose and L-lactate solutions are prepared in a 20 mM phosphate buffer pH 7.4 at these concentrations respectively: 1000, 500, 250, 100, 50, 25, 10, 5, 2.5, 1, 0.25, 0.1 mM and 2500, 1000, 500, 100, 50, 10, 5, 1, 0.5, 0.1, 0.05, 0.01 mM. The plate with ARS-boronate mixed with carbohydrate is incubated 20 minutes at room temperature. After 5 minutes of centrifugation at 4000 rpm the plate is placed in a multiwell spectrometer (Spectra Max, Molecular Devices) for absorption detection.
(§5) The analysis is carried out at room temperature with absorption readings at 330, 340 and 520 nm, respectively.

[4] = Alizarin red (ARS) assay, lactate binding affinity; settings: 20 mM phosphate buffer pH 7.4, room temperature, N.D. = not detectable
Protocol: as §1, §2, §3, §4, §5

Chain of human serum albumin (HSA) (P02768 25-609): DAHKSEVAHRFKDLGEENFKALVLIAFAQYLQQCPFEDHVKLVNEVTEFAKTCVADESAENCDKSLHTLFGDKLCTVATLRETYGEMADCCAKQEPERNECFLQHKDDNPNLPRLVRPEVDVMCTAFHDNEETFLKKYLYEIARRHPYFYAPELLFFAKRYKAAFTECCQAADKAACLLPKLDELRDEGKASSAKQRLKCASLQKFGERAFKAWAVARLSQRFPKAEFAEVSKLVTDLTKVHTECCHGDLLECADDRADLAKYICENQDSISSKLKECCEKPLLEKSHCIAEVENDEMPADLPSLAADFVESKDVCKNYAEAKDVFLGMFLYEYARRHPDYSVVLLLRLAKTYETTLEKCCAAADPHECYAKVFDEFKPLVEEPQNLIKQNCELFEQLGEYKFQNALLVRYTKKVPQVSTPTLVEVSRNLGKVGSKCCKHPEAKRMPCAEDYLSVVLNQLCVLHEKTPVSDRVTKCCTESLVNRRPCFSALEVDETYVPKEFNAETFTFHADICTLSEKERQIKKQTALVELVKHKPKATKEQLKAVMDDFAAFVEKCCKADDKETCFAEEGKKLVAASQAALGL

SMILES: O=C(O)CN=S(=O)(c1cc(B(O)O)cc(C(F)(F)F)c1)c1cc(B(O)O)cc(C(F)(F)F)c1 [Example 30, 2-((Bis(3-borono-5-(trifluoromethyl)phenyl)(oxo)-λ6-sulfanylidene)amino)acetic acid]
- Kd [1]: 0.06 mM

SMILES: O=C(O)CN(CCNC(=O)c1cc2c(c(C(F)(F)F)c1)COB2O)C(=O)c1cc2c(c(C(F)(F)F)c1)COB2O [Example 25, N-(1-Hydroxy-4-(trifluoromethyl)-1,3-dihydrobenzo[c][1,2]oxaborole-6-carbonyl)-N-(2-(1-hydroxy-4-(trifluoromethyl)-1,3-dihydrobenzo[c][1,2]oxaborole-6-carboxamido)ethyl)glycine]
- Glucose-dependent binding to albumin (19F-NMR signal) [2]: bind to albumin in a glucose-dependent manner
- Kd [3]: 1.3 mM
- Kd [4]: 11 mM

SMILES: O=C(O)CCC(=O)N1C[C@H](NC(=O)c2cc3c(c(C(F)(F)F)c2)COB3O)[C@@H](NC(=O)c2cc3c(c(C(F)(F)F)c2)COB3O)C1 [Example 27, 4-((3S,4S)-3,4-Bis(1-hydroxy-4-(trifluoromethyl)-1,3-dihydrobenzo[c][1,2]oxaborole-6-carboxamido)pyrrolidin-1-yl)-4-oxobutanoic acid]
- Kd [3]: 1.1 mM
- Kd [4]: 41 mM

SMILES: O=C(O)CN(CCNC(=O)c1cc(Cl)c2c(c1)B(O)OC2)C(=O)c1cc(Cl)c2c(c1)B(O)OC2 [Example 32, N-(4-Chloro-1-hydroxy-1,3-dihydrobenzo[c][1,2]oxaborole-6-carbonyl)-N-(2-(4-chloro-1-hydroxy-1,3-dihydrobenzo[c][1,2]oxaborole-6-carboxamido)ethyl)glycine]
- Kd [3]: 3.2 mM
- Kd [4]: 60.6 mM

SMILES: O=C(NCC[C@H](NC(=O)c1ccc(B(O)O)c(F)c1)C(=O)O)c1ccc(B(O)O)c(F)c1 [Example 4, (S)-2,4-bis(4-borono-3-fluorobenzamido)butanoic acid]
- Kd [3]: 2.6 mM
- Kd [4]: 6.5 mM

SMILES: O=C(O)CN(CCNC(=O)c1cc2c(cc1F)COB2O)C(=O)c1cc2c(cc1F)COB2O [Example 7, N-(5-Fluoro-1-hydroxy-1,3-dihydrobenzo[c][1,2]oxaborole-6-carbonyl)-N-(2-(5-fluoro-1-hydroxy-1,3-dihydrobenzo[c][1,2]oxaborole-6-carboxamido)ethyl)glycine]
- Kd [3]: 1.5 mM
- Kd [4]: 24.1 mM

SMILES: O=C(O)CN=S(=O)(c1cc(OC(F)(F)F)cc(B(O)O)c1)c1cc(OC(F)(F)F)cc(B(O)O)c1 [Example 44, 2-((Bis(3-borono-5-(trifluoromethoxy)phenyl)(oxo)-λ6-sulfanylidene)amino)acetic acid]
- Kd [3]: 0.8 mM
- Kd [4]: 41 mM

More lines, main results first:

- Kd [3]: 2 mM
- Kd [4]: 20 mM
SMILES: O=C(O)CNC(=O)c1cc(B(O)O)cc(C(=O)c2cc(F)cc(B(O)O)c2)c1 [Example 22, (3-Borono-5-(3-borono-5-fluorobenzoyl)benzoyl)glycine]
- Glucose-dependent binding to albumin (19F-NMR signal) [2]: bind to albumin in a glucose-dependent manner

- Kd [3]: 0.2 mM
- Kd [4]: 10 mM
SMILES: O=C(NC[C@H](NC(=O)c1cc2c(c(C(F)(F)F)c1)COB2O)C(=O)O)c1cc2c(c(C(F)(F)F)c1)COB2O [Example 26, (S)-2,3-Bis(1-hydroxy-4-(trifluoromethyl)-1,3-dihydrobenzo[c][1,2]oxaborole-6-carboxamido)propanoic acid]
- Glucose-dependent binding to albumin (19F-NMR signal) [2]: bind to albumin in a glucose-dependent manner

- Kd [3]: 1.7 mM
- Kd [4]: 31 mM
SMILES: O=C(O)CNC(=O)c1cc(B(O)O)cc(S(=O)(=O)c2cc(B(O)O)cc(C(F)(F)F)c2)c1 [Example 20]

- Kd [3]: 0.5 mM
- Kd [4]: 10 mM
SMILES: O=C(NC[C@H](NC(=O)c1ccc2c(c1F)B(O)OC2)C(=O)O)c1ccc2c(c1F)B(O)OC2 [Example 15, (S)-2,3-Bis(7-fluoro-1-hydroxy-1,3-dihydrobenzo[c][1,2]oxaborole-6-carboxamido)propanoic acid]

- Kd [3]: 2.7 mM
- Kd [4]: 16 mM
SMILES: NC(=O)CN(CCNC(=O)c1ccc(B(O)O)c(F)c1)C(=O)c1ccc(B(O)O)c(F)c1 [Example 3, N,N′-bis(4-borono-3-fluorobenzamido)-N-ethyl-glycine amide]
- Glucose-dependent binding to albumin (19F-NMR signal) [2]: bind to albumin in a glucose-dependent manner; also recorded: glucose-sensitive albumin binding
